Experimental data published in patent US5714494A, “Xanthines in the 7th position with a benzyl acetic acid moiety” (Bayer Aktiengesellschaft, priority 1995, dated 1998).

test system: ApoB-100-associated lipoproteins; test: Inhibition of the release of ApoB-100-associated lipoproteins from HepG2 cells (immunoassay for human LDL); type: cell-based; settings: HepG2 cells; light absorption 450 nm vs solvent control
Procedure: The test for detecting inhibition of the release of ApoB-100-associated lipoproteins from liver cells was carried out in vitro using cultured liver cells, preferably using cells of the human line HepG2. These cells are grown under standard conditions in medium for the culture of eucaryotic cells, preferably in RPMI 1640 using 10% foetal calf serum. HepG2 cells synthesize and secrete into the culture supernatant ApoB-100-associated lipoprotein particles which in principle are synthesized in a similar manner to the VLDL and LDL particles which are to be found in the plasma.
These particles can be detected using an immunoassay for human LDL. This immunoassay is carried out using antibodies which have been induced in the rabbit against human LDL under standard conditions. The anti-LDL antibodies (rabbit anti-LDL-Ab) were purified by affinity chromatography on an immunosorbent using human LDL. These purified rabbit anti-LDL Ab are adsorbed on the surface of plastic. Expediently, this adsorption is carried out on the plastic surface of microtitre plates having 96 wells, preferably on MaxiSorp plates. If ApoB-100-associated particles are present in the supernatant of Hep-G2 cells, these can bind to the insolubilized rabbit anti-LDL Ab, and an immune complex is formed which is bound to the plastic surface. Unbound proteins are removed by washing. The immune complex located on the plastic surface is detected using monoclonal antibodies which have been induced against human LDL according to standard conditions and purified. These antibodies were conjugated with the enzyme peroxidase. Peroxidase converts the colourless substrate TMB into a coloured product in the presence of H2 O2. After acidification of the reaction mixture using H2 SO4, the specific light absorption at 450 mn is determined, which is a measure of the amount of ApoB-100-associated particles which have been secreted into the culture supernatant by the HepG2 cells.
The IC50 value indicates at which substance concentration the light absorption is inhibited by 50% in comparison with the control (solvent control without substance).

Row | SMILES | IC50 [nM]
1 | Cn1c(=O)c2c(nc(-c3cccs3)n2Cc2ccc(C(C(=O)N[C@@H](CO)c3ccccc3)C3CCCC3)cc2)n(C)c1=O (single isomer, unassigned) [Example 158] | 2
2 | Cc1ccc(Cc2nc3c(c(=O)n(C)c(=O)n3C)n2Cc2ccc(C(C(=O)N[C@@H](CO)c3ccccc3)C3CCCC3)cc2)cc1 (single isomer, unassigned) [Example 184] | 24
3 | Cn1c(=O)c2c(nc(-c3ccccc3)n2Cc2ccc(C(C(=O)N[C@@H](CO)c3ccccc3)C3CCCC3)cc2)n(C)c1=O (single isomer, unassigned) [Example 131] | 135
4 | Cc1ccc(Cc2nc3c(c(=O)n(C)c(=O)n3C)n2Cc2ccc(C(C(=O)N[C@@H](CO)c3ccccc3)C3CCCC3)cc2)cc1 (single isomer, unassigned) [Example 183] | 10
5 | Cn1c(=O)c2c(nc(Cc3ccccc3)n2Cc2ccc(C(C(=O)N[C@@H](CO)c3ccccc3)C3CCCC3)cc2)n(C)c1=O (single isomer, unassigned) [Example 170] | 16
6 | COc1ccc(Cc2nc3c(c(=O)n(C)c(=O)n3C)n2Cc2ccc(C(C(=O)N[C@@H](CO)c3ccccc3)C3CCCC3)cc2)cc1 (single isomer, unassigned) [Example 203] | 63
7 | Cn1c(=O)c2c(nc(Cc3ccc(F)cc3)n2Cc2ccc(C(C(=O)N[C@@H](CO)c3ccccc3)C3CCCC3)cc2)n(C)c1=O (single isomer, unassigned) [Example 195] | 5
8 | Cn1c(=O)c2c(nc(Cc3cccc(Cl)c3)n2Cc2ccc(C(C(=O)N[C@@H](CO)c3ccccc3)C3CCCC3)cc2)n(C)c1=O (single isomer, unassigned) [Example 192] | 8
9 | Cn1c(=O)c2c(ncn2Cc2ccc(C(C(=O)N[C@@H](CO)c3ccccc3)C3CCCC3)cc2)n(C)c1=O (single isomer, unassigned) [Example 115] | 240
10 | Cn1c(=O)c2c(nc(Cc3ccccc3Cl)n2Cc2ccc(C(C(=O)N[C@@H](CO)c3ccccc3)C3CCCC3)cc2)n(C)c1=O (single isomer, unassigned) [Example 190] | 86
11 | Cc1ccc(-c2nc3c(c(=O)n(C)c(=O)n3C)n2Cc2ccc(C(C(=O)N[C@@H](CO)c3ccccc3)C3CCCC3)cc2)cc1 (single isomer, unassigned) [Example 137] | 124
12 | COc1cccc(Cc2nc3c(c(=O)n(C)c(=O)n3C)n2Cc2ccc(C(C(=O)N[C@@H](CO)c3ccccc3)C3CCCC3)cc2)c1 (single isomer, unassigned) [Example 200] | 24
13 | Cn1c(=O)c2c(nc(Cc3cccc(Cl)c3)n2Cc2ccc(C(C(=O)N[C@@H](CO)c3ccccc3)C3CCCC3)cc2)n(C)c1=O (single isomer, unassigned) [Example 193] | 62
14 | Cn1c(=O)c2c(nc(-c3ccsc3)n2Cc2ccc(C(C(=O)N[C@@H](CO)c3ccccc3)C3CCCC3)cc2)n(C)c1=O (single isomer, unassigned) [Example 155] | 2
15 | COc1ccc(Cc2nc3c(c(=O)n(C)c(=O)n3C)n2Cc2ccc(C(C(=O)N[C@@H](CO)c3ccccc3)C3CCCC3)cc2)cc1 (single isomer, unassigned) [Example 202] | 9
16 | Cn1c(=O)c2c(nc(Cc3ccccc3Cl)n2Cc2ccc(C(C(=O)N[C@@H](CO)c3ccccc3)C3CCCC3)cc2)n(C)c1=O (single isomer, unassigned) [Example 189] | 31
17 | Cn1c(=O)c2c(nc(Br)n2Cc2ccc(C(C(=O)N[C@@H](CO)c3ccccc3)C3CCCC3)cc2)n(C)c1=O (single isomer, unassigned) [Example 118] | 7
18 | Cn1c(=O)c2c(nc(-c3ccsc3)n2Cc2ccc(C(C(=O)N[C@@H](CO)c3ccccc3)C3CCCC3)cc2)n(C)c1=O (single isomer, unassigned) [Example 156] | 25

same assay, conditions: Homo sapiens, HepG2, HepG2 cells; light absorption 450 nm vs solvent control

Row | SMILES | IC50 [nM]
19 | Cn1c(=O)c2c(nc(-c3cccs3)n2Cc2ccc(C(C(=O)N[C@@H](CO)c3ccccc3)C3CCCC3)cc2)n(C)c1=S (stereo partly drawn) [Example 225] | 4
20 | CCn1c(=O)c2c(nc(-c3ccc(C)cc3)n2Cc2ccc(C(C(=O)N[C@@H](CO)c3ccccc3)C3CCCC3)cc2)n(CC)c1=O (stereo partly drawn) [Example 218] | 8
21 | CCn1c(=O)c2c(nc(-c3cccs3)n2Cc2ccc(C(C(=O)N[C@@H](CO)c3ccccc3)C3CCCC3)cc2)n(CC)c1=O (stereo partly drawn) [Example 219] | 5
22 | Cn1c(=O)c2c(nc(C3CC3)n2Cc2ccc(C(C(=O)N[C@@H](CO)c3ccccc3)C3CCCC3)cc2)n(C)c1=O (stereo partly drawn) [Example 121] | 36
23 | Cc1ccc(-c2nc3c(c(=O)n(C)c(=O)n3C)n2Cc2ccc(C(C(=O)N[C@@H](CO)c3ccccc3)C3CCCC3)cc2)c(C)c1 (stereo partly drawn) [Example 138] | 403
24 | Cn1c(=O)c2c(nc(Cc3ccc(-c4ccccc4)cc3)n2Cc2ccc(C(C(=O)N[C@@H](CO)c3ccccc3)C3CCCC3)cc2)n(C)c1=O (stereo partly drawn) [Example 185] | 29
25 | CCn1c(=O)c2c(ncn2Cc2ccc(C(C(=O)N[C@@H](CO)c3ccccc3)C3CCCC3)cc2)n(CC)c1=O (single isomer, unassigned) [Example 212] | 8
26 | Cn1c(=O)c2c(nc(C3CCCC3)n2Cc2ccc(C(C(=O)N[C@@H](CO)c3ccccc3)C3CCCC3)cc2)n(C)c1=O (stereo partly drawn) [Example 122] | 48
27 | Cc1nc2c(c(=O)n(C)c(=S)n2C)n1Cc1ccc(C(C(=O)N[C@@H](CO)c2ccccc2)C2CCCC2)cc1 (stereo partly drawn) [Example 223] | 4
28 | Cn1c(=O)c2c(ncn2Cc2ccc(C(C(=O)N[C@@H](CO)c3ccccc3)C3CCCC3)cc2)n(C)c1=O (stereo partly drawn) [Example 113] | 58
29 | CCn1c(=O)c2c(ncn2Cc2ccc(C(C(=O)N[C@@H](CO)c3ccccc3)C3CCCC3)cc2)n(CC)c1=O (stereo partly drawn) [Example 211] | 9
30 | Cn1c(=O)c2c(nc(-c3ccc(-c4ccccc4)cc3)n2Cc2ccc(C(C(=O)N[C@@H](CO)c3ccccc3)C3CCCC3)cc2)n(C)c1=O (stereo partly drawn) [Example 139] | 90
31 | Cc1ccc(-c2nc3c(c(=O)n(C)c(=S)n3C)n2Cc2ccc(C(C(=O)N[C@@H](CO)c3ccccc3)C3CCCC3)cc2)cc1 (stereo partly drawn) [Example 226] | 11
32 | Cc1cccc(Cc2nc3c(c(=O)n(C)c(=O)n3C)n2Cc2ccc(C(C(=O)N[C@@H](CO)c3ccccc3)C3CCCC3)cc2)c1 (single isomer, unassigned) [Example 180] | 5
33 | CCc1nc2c(c(=O)n(C)c(=S)n2C)n1Cc1ccc(C(C(=O)N[C@@H](CO)c2ccccc2)C2CCCC2)cc1 (stereo partly drawn) [Example 224] | 4
34 | CCn1c(=O)c2c(nc(-c3ccccc3)n2Cc2ccc(C(C(=O)N[C@@H](CO)c3ccccc3)C3CCCC3)cc2)n(CC)c1=O (stereo partly drawn) [Example 217] | 11
35 | CCn1c(=O)c2c(nc(C3CC3)n2Cc2ccc(C(C(=O)N[C@@H](CO)c3ccccc3)C3CCCC3)cc2)n(CC)c1=O (stereo partly drawn) [Example 216] | 34
36 | Cn1c(=O)c2c(nc(Cc3ccccc3O)n2Cc2ccc(C(C(=O)N[C@@H](CO)c3ccccc3)C3CCCC3)cc2)n(C)c1=O (stereo partly drawn) [Example 204] | 16
37 | Cn1c(=O)c2c(nc(Cc3cccs3)n2Cc2ccc(C(C(=O)N[C@@H](CO)c3ccccc3)C3CCCC3)cc2)n(C)c1=O (stereo partly drawn) [Example 126] | 41
38 | CCc1nc2c(c(=O)n(C)c(=O)n2C)n1Cc1ccc(C(C(=O)N[C@@H](CO)c2ccccc2)C2CCCC2)cc1 (stereo partly drawn) [Example 120] | 28
39 | Cn1c(=O)c2c(nc(Cc3cccc(O)c3)n2Cc2ccc(C(C(=O)N[C@@H](CO)c3ccccc3)C3CCCC3)cc2)n(C)c1=O (stereo partly drawn) [Example 207] | 40
